{"source": "patent US8551405B2", "about": "“Electrophoretic interactive spectral methods and devices for the detection and/or characterization of biological particles” (The University of North Carolina at Chapel Hill, priority 2004, dated 2013)", "key": {"activated platelets": {"test_system": "activated platelets", "assay": "EQELS binding of proteins to thrombin-activated platelets", "set-up": "species or system human", "procedure": "(§1) Fresh gel-filtered platelets were used in all experiments. Blood from healthy donors was collected in acid-citrate-dextrose and prostacyclin (5 μg/mL, PGI2, Sigma Chemical Co., St. Louis, Mo.). Platelet-rich-plasma was obtained by centrifugation of the anticoagulated blood at 150 g for 15 minutes. […] Gel-filtered platelets were obtained from the application of washed platelets to a Sepharose CL-2B column (Pharamica Inc., Uppsala, Sweden) equilibrated with calcium-free albumin-free Tyrode's buffer. Platelets for light scattering experiments were suspended in buffer containing 20 mM NaCl, 265 mM sucrose, 2 mM HEPES, pH 7.4 and activated with human α-thrombin (0.2 NIH units/mL). See Li, X., Gabriel, D. A. The physical exchange of factor VIII (FVIII) between von Willebrand factor and activated platelets and the effect of the FVIII B-domain on platelet binding (1997) Biochem. J. 36, 10760-10767. […] EQELS spectra of the gel filtered platelets gave a single homogeneous mobility indicating the lack of microparticles. No change is observed in the platelet mobility spectrum on the addition of rFVIIa over the concentration range where rFVIIa would be expected to bind to tissue factor if it was present, indicating an absence of TF in the preparation.\nElectrophoretic quasi-elastic light scattering offers the ability to monitor changes in the surface of blood cells resulting from cell activation and ligand binding. Gabriel, D. A., Reece, N., Witte, J., and Muga, K. Electrophoretic light scattering studies on the interaction of fibrinogen with resting and activated human platelets (1993) Blood Coagul. Fibrinolysis 4, 397-403; Johnson, C., and Gabriel, D. A. (1995) Laser Light Scattering, Dover, N.Y. The electrophoretic mobility of activated platelets changes when exposed to a known ligand and that the mobility change is the result of ligand binding. […] Under these experimental conditions, resting gel-filtered platelets have an electrophoretic mobility of −0.9 (μ-cm)/(volt-sec) and activated platelets have a mobility of −0.65(μ-cm)/(volt-sec). Loading the platelet surface with a ligand, such as a FIX or FVIII, changes the platelet electrophoretic mobility. While the absolute mobility varies slightly from donor to donor, there is minimal variation in a given donor. The dependence of the change in the platelet electrophoretic mobility on the addition of FIX permits calculation of the binding constant for FIX to the activated platelet. It is not the magnitude of the change in the platelet electrophoretic mobility, μ, that determines the binding constant, but how the change in μ depends on the concentration of the ligand FIX. The effect of ligand binding on the platelet mobility varies with the ligand, and is dependent on the extent of ligand binding, the extent of surface modification caused by ligand binding, and on the net charge of the ligand itself.\nEQELS measurements were made on a multi-angle quasi-elastic light scattering spectrometer (DELSA 440, Coulter Electronics, Inc., Hialeah, Fla.). See Li, X., Gabriel, D. A. Biochem. J. 36, 10760-10767 (1997); Johnson, C., and Gabriel, D. A. (1995) Laser Light Scattering, Dover, N.Y.\nActivated platelets and activated FVIII were prepared by activation with 0.2 NIH U/mL human α-thrombin for 5 minutes. After activation, residual thrombin was inactivated by addition of 2.5 μM phenylalanyl prolinyl arginine chloromethyl ketone (PPACK, Calbiochem, La Jolla, Calif.). FIX, FIXa, FVIIIa, and rFVIIa were incubated with platelets for 10 minutes before EQELS measurements.\nThe binding coefficient (Kd) of the proteins to platelets was determined by fitting the data from the binding experiment to:\n[formula] where, μ is the electrophoretic mobility, μ0 is the mobility in the absence of added protein, Δμ is the calculated maximal change in mobility at the saturating concentration of protein. This model assumes one class of binding sites for the specific protein ligand on the platelets. […]"}, "resting platelets": {"test_system": "resting platelets", "assay": "EQELS binding to resting platelets", "set-up": "species or system human", "conditions": "data not shown", "procedure": "as §1, with “preparation. […]” for “preparation.”"}, "[1]": {"test_system": "activated platelet surface", "conditions": "literature, read-out: Kd, binding to activated platelet surface, cited from earlier work"}, "[2]": {"molecular_target": "T1, platelet-bound zymogen FIX (Homo sapiens, UniProt P00740)", "T1 construct": "made in house", "T1 sequence (P00740 29-461 limits assumed)": "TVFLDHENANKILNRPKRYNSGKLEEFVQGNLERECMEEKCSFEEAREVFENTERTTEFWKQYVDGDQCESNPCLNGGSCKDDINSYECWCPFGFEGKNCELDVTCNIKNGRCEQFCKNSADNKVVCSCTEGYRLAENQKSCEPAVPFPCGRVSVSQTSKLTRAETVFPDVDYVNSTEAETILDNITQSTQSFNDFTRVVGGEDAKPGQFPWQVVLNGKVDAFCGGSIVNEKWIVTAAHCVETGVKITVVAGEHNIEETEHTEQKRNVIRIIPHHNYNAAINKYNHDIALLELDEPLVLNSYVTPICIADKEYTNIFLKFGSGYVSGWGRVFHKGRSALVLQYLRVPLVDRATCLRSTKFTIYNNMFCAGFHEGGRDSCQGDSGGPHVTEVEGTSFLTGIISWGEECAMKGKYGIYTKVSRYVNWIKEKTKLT", "assay": "EQELS time and concentration dependence of zymogen FIX activation by rFVIIa on activated platelets", "type": "cell-based", "conditions": "FIX 10 nM", "procedure": "FIG. 11A is a graph of the time and concentration dependence of rFVIIa on the activation of zymogen FIX. Platelets were activated with thrombin followed by inhibition of thrombin with PPACK. The activated platelets were then loaded with rFVIIa (0.075 nM, 1 nM, or 10 nM) and monitored as a function of time. The mobility at the initial time (zero) is the mobility for platelets loaded with zymogen FIX. […] Changes in the platelet mobility result from FIX activation.\nZymogen FIX at varying concentrations was added to the thrombin activated platelets that in some experiments included FVIIIa followed by a 10 minute incubation period. After this incubation period, rFVIIa was added to activated platelets coated with zymogen FIX. The EQELS spectrum was then obtained.\nA decrease in the […] of FIX was used to detect activation of zymogen FIX by rFVIIa."}, "FIX": {"molecular_target": "T2, FIX (Homo sapiens, UniProt P00740)", "T2 construct": "made in house", "T2 sequence (P00740 29-461 limits assumed)": "as above", "assay": "Functional (chromogenic) assay for activation of FIX on activated platelets", "type": "biochemical", "procedure": "FIG. 12 is a graph illustrating the amount of FIX activated as a function of time and at different concentrations of rFVIIa (between 0 nM and 49 nM) for a chromogenic assay to show activation of FIX by rFVIIa in the absence of TF.\nAll assays were run in Tyrodes buffer with 2 mM CaCl2. Platelets were activated with 0.2 NIH units/ml of human α-thrombin for 10 minutes at 37° C. FVIII at 5 units/ml were included with the platelets and thrombin. Thrombin was neutralized with hirudin from a medium titrated against an α-thrombin standard. FVIIa at varying concentrations was added to the platelets for 10 minutes. Plasma concentrations of FIX at 80 nM were added and incubated for varied times. FIXa was assayed in a two stage assay. Platelets with activated FIX were incubated with plasma concentrations of FX for 5 minutes, then the amount of FXa was measured by adding plasma concentrations of prothrombin along with a […] (0.5 mM Perfachrome Th). […] Thrombin generation was measured as the change in the absorbance as the p-nitroanilide substrate was cleaved as a function of time. As expected, substrate cleavage fit a second order pattern and the rate of thrombin generation was determined from the first derivative of the absorbance versus time data."}, "[3]": {"assay": "rFVIIa concentration after therapeutic infusion", "type": "in vivo", "conditions": "therapeutic infusion for a bleeding diathesis, estimated"}, "[4]": {"conditions": "4 mM Ca++, 3 nM FVIIIa, read-out: Binding Coefficient (Kd), interaction with activated platelets"}, "[5]": {"conditions": "4 mM Ca++, No FVIIIa, read-out: Binding Coefficient (Kd), interaction with activated platelets"}}, "note": "pKd: −log10 of the molar value. Where “and” joins values, the source holds several entries; their conditions need not be identical. Equal entries are not always repeated. Where two headings read alike, the source gives them in different places."}
{"substance": "Activated coagulation factor IX [FIXa]", "values": [{"measurement": "pKd", "setting": "activated platelets; [4]", "result": 9.24}, {"measurement": "pKd", "setting": "activated platelets; [5]", "result": 8.72}, {"measurement": "pKd", "setting": "activated platelets; 4 mM calcium, 3 nM rFVIIIa, read-out: binding constant (Kd) to activated platelets", "result": "9.24 and 9.22"}, {"measurement": "pKd", "setting": "activated platelets; 4 mM calcium, no rFVIIIa, read-out: binding constant (Kd) to activated platelets", "result": "8.72 and 8.70"}, {"measurement": "binding to activated platelets (change in platelet electrophoretic mobility)", "setting": "activated platelets; absence of calcium", "result": "no binding"}, {"measurement": "binding to resting platelets", "setting": "resting platelets", "result": "do not bind"}, {"measurement": "pKd", "setting": "[1]; in the presence of rFVIIIa", "result": 9.22}, {"measurement": "pKd", "setting": "[1]; no rFVIIIa", "result": 8.60}]}
{"substance": "Coagulation factor IX [FIX]", "values": [{"measurement": "pKd", "setting": "activated platelets; 10 nM rFVIIa, 4 mM calcium, 3 nM rFVIIIa, read-out: binding coefficient (Kd) for zymogen FIX to activated platelets in presence of rFVIIa", "result": 9.08}, {"measurement": "pKd", "setting": "activated platelets; 10 nM rFVIIa, 4 mM calcium, no rFVIIIa, 10 min incubation, read-out: binding coefficient (Kd) for zymogen FIX to activated platelets in presence of rFVIIa", "result": "8.79 and 8.80"}, {"measurement": "pKd", "setting": "activated platelets; [4]", "result": 8.24}, {"measurement": "pKd", "setting": "activated platelets; [5]", "result": 8.10}, {"measurement": "pKd", "setting": "activated platelets; FIX + FVIIa (10 nM), 4 mM Ca++, No FVIIIa, read-out: Binding Coefficient (Kd) for FIX in the presence of FVIIa, activated platelets", "result": 8.79}, {"measurement": "binding to resting platelets", "setting": "resting platelets", "result": "do not bind"}]}
{"substance": "Recombinant activated coagulation factor Vila [rFVIIa]", "values": [{"measurement": "change in platelet mobility on addition of rFVIIa", "setting": "activated platelets; concentration range where rFVIIa would be expected to bind tissue factor", "result": "no change"}, {"measurement": "change in platelet surface charge", "setting": "activated platelets; conditions identical to FIXa binding experiment", "result": "does not change"}, {"measurement": "rFVIIa concentration at which it binds to platelets in the presence of FIX", "setting": "activated platelets; in the presence of FIX", "result": "≥ 10", "unit": "nM"}, {"measurement": "change in electrophoretic mobility of platelets on addition of rFVIIa", "setting": "activated platelets; rFVIIa 0 to 40 nM", "result": "did not change"}, {"measurement": "binding of rFVIIa to activated platelets", "setting": "activated platelets; rFVIIa at 10 nM", "result": "does not bind"}, {"measurement": "binding of rFVIIa to activated platelets", "setting": "activated platelets; rFVIIa greater than 100 nM", "result": "can be detected"}, {"measurement": "direct binding of rFVIIa to activated platelet surface", "setting": "activated platelets; rFVIIa less than 100 nM, even in the presence of calcium", "result": "no direct binding"}, {"measurement": "binding of rFVIIa to activated platelets", "setting": "activated platelets; rFVIIa range of 0.75 to 10 nM", "result": "does not bind"}, {"measurement": "pKd", "setting": "activated platelets; very high rFVIIa concentrations, absence of calcium (unpublished data), read-out: Kd of rFVIIa binding to platelets", "result": 6.60}, {"measurement": "pKd", "setting": "activated platelets; very high rFVIIa concentrations, presence of calcium (unpublished data), read-out: Kd of rFVIIa binding to platelets", "result": 6.91}, {"measurement": "activation of zymogen FIX by rFVIIa (EQELS)", "setting": "[2]; 0.075 nM rFVIIa, approximately 30 minutes", "result": "minimal activation"}, {"measurement": "activation of zymogen FIX by rFVIIa (EQELS)", "setting": "[2]; 1 nM rFVIIa", "result": "further activation"}, {"measurement": "conversion of zymogen FIX to activated FIX by rFVIIa (EQELS)", "setting": "[2]; 10 nM rFVIIa", "result": "still more rapid rate"}, {"measurement": "FXa and thrombin production", "setting": "FIX; dependent on concentration of added rFVIIa, not shown in FIG. 12", "result": "produced"}, {"measurement": "activation of platelet-bound zymogen FIX (chromogenic assay)", "setting": "FIX; rFVIIa 10, 20, 30, 40 nM, absence of TF", "result": "linear in time and directly proportional to the concentration of added rFVIIa"}, {"measurement": "concentration of rFVIIa after therapeutic infusion", "setting": "[3]", "result": "approximately 30 nM"}]}
